Measurements: patent US10183944B2 (Asana Biosciences, LLC, priority 2011, dated 2019)
pIC50: −log10 of the molar value. Where a name gives a salt, the structure may show the parent alone.

How the values were obtained:
JAK2 = JAK2 (Homo sapiens (Human), UniProt O60674); experiment: Inhibition of enzymatic JAK2 kinase activity (TR-FRET); assay type: biochemical; settings: read-out: IC50 JAK
From the text: The objective of this assay was to screen compounds in a Time-resolved fluorescence resonance energy transfer (TR-FRET) Enzymatic assay method for their potential to inhibit JAK2 (Janus kinase) activity.
TR-FRET assays are homogeneous proximity assays where Eu-labeled antiphosphotyrosine antibody binds to the phosphorylated substrates labeled with Ulight fluorescence acceptor. Eu can transfer energy to Ulight accepter in the complex and the interaction of two dye-labeled binding partners is detected by the energy transfer between a donor and an acceptor dye, and the subsequent light emission by the acceptor dye. The intensity of the light emission is proportional to the level of Ulight peptide phosphorylation.
Two μL of 10% DMSO in blank, substrate control and positive control wells and 2 μL of test compound in test wells was added. Thirteen μL of assay buffer in blank and substrate control wells and 13 μL of Enzyme buffer mix in positive and test wells was added. The reaction mixture was incubated for 30 minutes at RT on a plate shaker. Ultra Light-pGT substrate (5 μL) [poly Glu-Tyr (4:1) labeled with U Light TM dye, a tyrosine kinase substrate] and ATP mix was added to all wells. The reaction plate was incubated for 60 minutes at RT on a plate shaker. The reaction was stopped by adding 40 mM EDTA (10 μL) in buffer. Ten μL of antibody was added to all the wells. The plate was read in a Wallac® 1420 Multilabel Counter Victor 3 instrument (Ex: 340 nm Em: 615 & 665 nm) The following calculations were made:
F@ 665 Value-Buffer blank
F@ 615 Value-Buffer blank
Ratio of F@665/F@615-Substrate Blank
% Activity=(Test Sample/Positive control)*100%
Inhibition=(100−% Activity)

[1] = biological target: Syk (356-635 amino acids) catalytic domain (Homo sapiens (Human), UniProt P43405); experiment: Inhibition of enzymatic Syk kinase activity (radiometric); assay type: biochemical; settings: read-out: IC50 Syk
Procedure, shortened: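 Human Syk (356-635) kinase domain (0.035–7.5 ng/reaction) preincubated with compound 30 minutes at room temperature, then reacted with pG4T substrate, 100 μM ATP (stock) and γ-32P-ATP for 10 minutes at 30° C. Reaction stopped with HCl/ATP, spotted on P81 paper, washed and counted by scintillation. Percent inhibition versus no-compound counts.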

Chain of JAK2 (O60674 808-1132): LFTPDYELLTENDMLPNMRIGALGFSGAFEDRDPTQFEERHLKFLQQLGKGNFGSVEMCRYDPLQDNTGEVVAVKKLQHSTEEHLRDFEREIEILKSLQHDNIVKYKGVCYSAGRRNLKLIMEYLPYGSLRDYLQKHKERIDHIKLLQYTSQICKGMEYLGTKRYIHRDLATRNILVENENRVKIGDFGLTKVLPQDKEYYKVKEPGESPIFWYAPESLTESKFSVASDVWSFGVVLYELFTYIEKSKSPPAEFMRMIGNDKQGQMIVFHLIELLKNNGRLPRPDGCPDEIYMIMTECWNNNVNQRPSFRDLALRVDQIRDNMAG

O=C(O)C1CC12CCN(c1ccc(Nc3nc(-c4ccccc4)nc4cn[nH]c(=O)c34)cc1)CC2 (stereo not shown) [Example 22, sodium 6-(4-(5-oxo-2-phenyl-5,6-dihydropyrimido[4,5-d]pyridazin-4-ylamino)phenyl)-6-azaspiro[2.5]octane-1-carboxylate]
pIC50 (JAK2): > 7.30 | pIC50 [1]: > 7.00

O=c1[nH]ncc2nc(-c3ccccc3)nc(Nc3ccc(CN4CCC5(CC4)COC5)cc3)c12 [Example 23, 4-(4-(2-oxa-7-azaspiro[3.5]nonan-7-ylmethyl)phenylamino)-2-phenylpyrimido[4,5-d]pyridazin-5(6H)-one]
pIC50 (JAK2): > 7.00 | pIC50 [1]: > 7.30

O=C(O)c1ccc(-c2nc(Nc3ccc(CN4CCNCC4)cc3)c3c(=O)[nH]ncc3n2)cc1 [Example 27, 4-(5-oxo-4-(4-(piperazin-1-ylmethyl)phenylamino)-5,6-dihydropyrimido[4,5-d]pyridazin-2-yl)benzoic acid hydrochloride]
pIC50 (JAK2): < 7.00 | pIC50 [1]: < 7.00

CCN1CCN(c2ccc(Nc3nc(-c4ccc(OC(F)(F)F)cc4)nc4cn[nH]c(=O)c34)cc2)CC1 [Example 28, 4-(4-(4-ethylpiperazin-1-yl)phenylamino)-2-(4-(trifluoromethoxy)phenyl) pyrimido[4,5-d]pyridazin-5(6H)-one]
pIC50 (JAK2): < 7.00 | pIC50 [1]: < 7.00

COc1cccc(-c2nc(Nc3ccc(CN4CCNCC4)cc3)c3c(=O)[nH]ncc3n2)c1 [Example 31, 2-(3-methoxyphenyl)-4-(4-(piperazin-1-ylmethyl)phenylamino)pyrimido[4,5-d]pyridazin-5(6H)-one hydrochloride]
pIC50 (JAK2): < 7.00 | pIC50 [1]: > 7.30

O=c1[nH]ncc2nc(N3CCNCC3)nc(Nc3ccc(CN4CCNCC4)cc3)c12 [Example 32, 2-(piperazin-1-yl)-4-(4-(piperazin-1-ylmethyl)phenylamino)pyrimido[4,5-d]pyridazin-5(6H)-one dihydrochloride]
pIC50 (JAK2): < 7.00 | pIC50 [1]: > 7.00

COc1ccccc1-c1nc(Nc2ccc(CN3CCNCC3)cc2)c2c(=O)[nH]ncc2n1 [Example 36, 2-(2-methoxyphenyl)-4-(4-(piperazin-1-ylmethyl)phenylamino)pyrimido[4,5-d]pyridazin-5(6H)-one hydrochloride]
pIC50 (JAK2): > 7.00 | pIC50 [1]: < 7.00

CCN1CCN(c2ccc(Nc3nc(-c4ccsc4)nc4cn[nH]c(=O)c34)cc2)CC1 [Example 37, 4-(4-(4-ethylpiperazin-1-yl)phenylamino)-2-(thiophen-3-yl)pyrimido[4,5-d]pyridazin-5(6H)-one hydrochloride]
pIC50 (JAK2): > 7.00 | pIC50 [1]: > 8.00

O=c1[nH]ncc2nc(-c3ccc(Cl)cc3)nc(Nc3ccc(CN4CCNCC4)cc3)c12 [Example 40, 2-(4-chlorophenyl)-4-(4-(piperazin-1-ylmethyl)phenylamino)pyrimido[4,5-d]pyridazin-5(6H)-one hydrochloride]
pIC50 (JAK2): < 7.00 | pIC50 [1]: > 7.30

COc1ccc(-c2nc(Nc3ccc(CN4CCNCC4)cc3)c3c(=O)[nH]ncc3n2)cc1 [Example 41, 2-(4-methoxyphenyl)-4-(4-(piperazin-1-ylmethyl)phenylamino)pyrimido[4,5-d]pyridazin-5(6H)-one hydrochloride]
pIC50 (JAK2): < 7.00 | pIC50 [1]: > 7.00

O=c1[nH]ncc2nc(N3CC[S+]([O-])CC3)nc(Nc3ccc(CN4CCNCC4)cc3)c12 [Example 44, 2-(1-oxidothiomorpholino)-4-((4-(piperazin-1-ylmethyl)phenyl)amino) pyrimido[4,5-d]pyridazin-5(6H)-one hydrochloride]
pIC50 (JAK2): < 7.00 | pIC50 [1]: < 7.00

CN1CCN(c2nc(Nc3ccc(CN4CCNCC4)cc3)c3c(=O)[nH]ncc3n2)CC1 [Example 45, 2-(4-methylpiperazin-1-yl)-4-((4-(piperazin-1-ylmethyl)phenyl)amino) pyrimido[4,5-d]pyridazin-5(6H)-one hydrochloride]
pIC50 (JAK2): < 7.00 | pIC50 [1]: < 7.00

CN(C)c1nc(Nc2ccc(CN3CCNCC3)cc2)c2c(=O)[nH]ncc2n1 [Example 49, 2-(dimethylamino)-4-((4-(piperazin-1-ylmethyl)phenyl)amino)pyrimido[4,5-d]pyridazin-5(6H)-one hydrochloride]
pIC50 (JAK2): > 7.00 | pIC50 [1]: > 7.00

O=C(O)C1CCN(c2nc(Nc3ccc(CN4CCNCC4)cc3)c3c(=O)[nH]ncc3n2)CC1 [Example 51, 1-(5-oxo-4-((4-(piperazin-1-ylmethyl)phenyl)amino)-5,6-dihydropyrimido[4,5-d]pyridazin-2-yl)piperidine-4-carboxylic acid hydrochloride]
pIC50 (JAK2): < 7.00 | pIC50 [1]: < 7.00

COc1ccccc1-c1nc(Nc2ccc(N3CCC4(CC3)CC4C(=O)O)cc2)c2c(=O)[nH]ncc2n1 (stereo not shown) [Example 53, 6-(4-((2-(2-methoxylphenyl)-5-oxo-5,6-dihydropyrimido[4,5-d]pyridazin-4-yl)amino)phenyl)-6-azaspiro[2.5]octane-1-carboxylic acid]
pIC50 (JAK2): > 7.00 | pIC50 [1]: < 7.00

O=c1[nH]ncc2nc(-c3ccc(CN4CCOCC4)cc3)nc(Nc3ccc(CN4CCNCC4)cc3)c12 [Example 55, 2-(4-(morpholinomethyl)phenyl)-4-((4-(piperazin-1-ylmethyl)phenyl)amino) pyrimido[4,5-d]pyridazin-5(6H)-one hydrochloride]
pIC50 (JAK2): < 7.00 | pIC50 [1]: < 7.00

N#CC1CCN(c2nc(Nc3ccc(CN4CCNCC4)cc3)c3c(=O)[nH]ncc3n2)CC1 [Example 56, 1-(5-oxo-4-((4-(piperazin-1-ylmethyl)phenyl)amino)-5,6-dihydropyrimido[4,5-d]pyridazin-2-yl)piperidine-4-carbonitrile hydrochloride]
pIC50 (JAK2): > 7.30 | pIC50 [1]: < 7.00

O=c1[nH]ncc2nc(N3CCCNCC3)nc(Nc3ccc(CN4CCNCC4)cc3)c12 [Example 59, 2-(1,4-diazepan-1-yl)-4-((4-(piperazin-1-ylmethyl)phenyl)amino)pyrimido[4,5-d]pyridazin-5(6H)-one dihydrochloride]
pIC50 (JAK2): < 7.00 | pIC50 [1]: > 7.30

N#CCN1CCN(c2nc(Nc3ccc(N4CCC(CC(=O)O)CC4)cc3)c3c(=O)[nH]ncc3n2)CC1 [Example 70, 2-(1-(4-((2-(4-(cyanomethyl)piperazin-1-yl)-5-oxo-5,6-dihydropyrimido[4,5-d]pyridazin-4-yl)amino)phenyl)piperidin-4-yl)acetic acid]
pIC50 (JAK2): < 7.00 | pIC50 [1]: > 7.00

O=C(O)C1CC12CCN(c1ccc(Nc3nc(N4CCCNCC4)nc4cn[nH]c(=O)c34)cc1)CC2 (stereo not shown) [Example 72, 6-(4-((2-(1,4-diazepan-1-yl)-5-oxo-5,6-dihydropyrimido[4,5-d]pyridazin-4-yl)amino)phenyl)-6-azaspiro[2.5]octane-1-carboxylic acid hydrochloride]
pIC50 (JAK2): > 7.00 | pIC50 [1]: > 7.30

O=C(O)CC1CCN(Cc2ccc(Nc3nc(N4CCCCCC4)nc4cn[nH]c(=O)c34)cc2)CC1 [Example 77, 2-(1-(4-((2-(azepan-1-yl)-5-oxo-5,6-dihydropyrimido[4,5-d]pyridazin-4-yl)amino)benzyl)piperidin-4-yl)acetic acid]
pIC50 (JAK2): > 8.00 | pIC50 [1]: > 7.30

O=C(O)C1CC12CCN(c1ccc(Nc3nc(C4CCCCC4)nc4cn[nH]c(=O)c34)cc1)CC2 (stereo not shown) [Example 79, 6-(4-((2-cyclohexyl-5-oxo-5,6-dihydropyrimido[4,5-d]pyridazin-4-yl)amino)phenyl)-6-azaspiro[2.5]octane-1-carboxylic acid]
pIC50 (JAK2): > 8.00 | pIC50 [1]: > 7.30

N#CCC1CCN(c2ccc(Nc3nc(N4CCCCCC4)nc4cn[nH]c(=O)c34)cc2)CC1 [Example 80, 2-(1-(4-((2-(azepan-1-yl)-5-oxo-5,6-dihydropyrimido[4,5-d]pyridazin-4-yl)amino)phenyl)piperidin-4-yl)acetonitrile]
pIC50 (JAK2): > 8.00 | pIC50 [1]: > 7.30

O=C(O)C1CC12CCN(c1ccc(Nc3nc(C4CCCCCC4)nc4cn[nH]c(=O)c34)cc1)CC2 (stereo not shown) [Example 81, 6-(4-((2-cycloheptyl-5-oxo-5,6-dihydropyrimido[4,5-d]pyridazin-4-yl)amino)phenyl)-6-azaspiro[2.5]octane-1-carboxylic acid]
pIC50 (JAK2): > 8.00 | pIC50 [1]: > 7.30

CC(C)(O)C(=O)N1CCN(Cc2ccc(Nc3nc(-c4ccccc4)nc4cn[nH]c(=O)c34)cc2)CC1 [Example 83, 4-((4-((4-(2-hydroxy-2-methylpropanoyl)piperazin-1-yl)methyl)phenyl)amino)-2-phenylpyrimido[4,5-d]pyridazin-5(6H)-one]
pIC50 (JAK2): > 7.30 | pIC50 [1]: > 7.30

CC(C)(O)C(=O)N1CCN(Cc2ccc(Nc3nc(N4CCCCCC4)nc4cn[nH]c(=O)c34)cc2)CC1 [Example 84, 2-(azepan-1-yl)-4-((4-((4-(2-hydroxy-2-methylpropanoyl)piperazin-1-yl)methyl)phenyl)amino)pyrimido[4,5-d]pyridazin-5(6H)-one]
pIC50 (JAK2): > 8.00 | pIC50 [1]: > 7.30
